From patent publication US20250288619A1, “PHARMACEUTICAL COMPOSITION, MEGASPHAERA, AND USE THEREOF” (MOON (GUANGZHOU) BIOTECH CO., LTD., priority 2022, published 2025)

Experiments:
strain MNH05026 = assay: Antibiotic sensitivity test by disk diffusion method, strain MNH05026; format: cell-based, Megasphaera sp.
Description: (§1) Antibiotic sensitivity tests of the strains MNH05026, MNH22004, and MNH27256: Antibiotic sensitivity tests were carried out on the strain MNH05026 by a disk diffusion method.

strain MNH22004 = assay: Antibiotic sensitivity test by disk diffusion method, strain MNH22004; format: cell-based, Megasphaera sp.
Description: as §1

strain MNH27256 = assay: Antibiotic sensitivity test by disk diffusion method, strain MNH27256; format: cell-based, Megasphaera sp.
Description: as §1

[1] = system: ectopic syngeneic liver cancer model; assay: Therapeutic effect of MNH05026 in combination with Lenvatinib on liver cancer; format: in vivo, mouse; settings: male BALB/c mice
Text: 104 male BALB/c mice were purchased, and inoculated with tumor cells after the quarantine was completed, to establish an ectopic syngeneic liver cancer model. The day of tumor cell inoculation was D1. […] Mice with abnormal tumor growth were discarded and the remaining mice were randomized into 10 groups according to the tumor volume on that day, with 7 mice per group. […] Group A was the Negative Control group, Group B was the positive control Lenvatinib group, Group J was the Lenvatinib+MNH05026 combination group, and Groups C-I received other test articles in combination with Lenvatinib. On the day of grouping, interventions were carried out according to the grouping. During the experiment, animal characteristics, tumor changes, tumor sizes, and mouse weights were monitored regularly. At the experimental endpoint, body weight changes, tumor volume changes, response rates, and tumor growth inhibition rates were analyzed.
(§2) Statistical analysis was performed using Two-Way ANOVA with Dunnett's multiple comparisons at the experimental endpoint. Significance of difference vs. the Control group: not significant (ns), p value≥0.05; *, p value<0.05; **, p value<0.01; ***, p value<0.001; ****, p value<0.0001.
as §2, with “FIGS. 17B and 17C present the mouse tumor volume data as mean±standard deviation (mm3). Statistical” for “Statistical”

| Molecule | Diameter of inhibition zone by MNH05026 (strain MNH05026) | Sensitivity or resistance of strain MNH05026 to the antibiotic (strain MNH05026) | Diameter of inhibition zone by MNH22004 (strain MNH22004) | Sensitivity or resistance of strain MNH22004 to the antibiotic (strain MNH22004) | Diameter of inhibition zone by MNH27256 (strain MNH27256) | Sensitivity or resistance of strain MNH27256 to the antibiotic (strain MNH27256) | Body weight during the experiment [1] | Response rate [1] | Tumor volume at the experimental endpoint vs Control group [1] |
| --- | --- | --- | --- | --- | --- | --- | --- | --- | --- |
| CC1(C)S[C@@H]2[C@H](NC(=O)[C@H](N)c3ccccc3)C(=O)N2[C@H]1C(=O)O [Ampicillin] | 19.91 mm | sensitive | 0 mm | resistant | 0 mm | resistant |  |  |  |
| CO/N=C(\C(=O)N[C@@H]1C(=O)N2C(C(=O)O)=C(CSc3nc(=O)c(=O)[nH]n3C)CS[C@H]12)c1csc(N)n1 [Ceftriaxone] | 29.42 mm | sensitive | 12.78 mm | sensitive | 0 mm | resistant |  |  |  |
| O=C(N[C@H](CO)[C@H](O)c1ccc([N+](=O)[O-])cc1)C(Cl)Cl [Chloramphenicol] | 37.02 mm | sensitive | 33.29 mm | sensitive | 34.45 mm | sensitive |  |  |  |
| O=C(O)c1cn(C2CC2)c2cc(N3CCNCC3)c(F)cc2c1=O [Ciprofloxacin] | 37.66 mm | sensitive | 35.42 mm | sensitive | 34.69 mm | sensitive |  |  |  |
| CC[C@H]1OC(=O)[C@H](C)[C@@H](O[C@H]2C[C@@](C)(OC)[C@@H](O)[C@H](C)O2)[C@H](C)[C@@H](O[C@@H]2O[C@H](C)C[C@H](N(C)C)[C@H]2O)[C@](C)(O)C[C@@H](C)C(=O)[C@H](C)[C@@H](O)[C@]1(C)O [Erythromycin] | 15.65 mm | sensitive | 21.03 mm | sensitive | 9.0 mm | sensitive |  |  |  |
| COc1cc2nccc(Oc3ccc(NC(=O)NC4CC4)c(Cl)c3)c2cc1C(N)=O [Lenvatinib] |  |  |  |  |  |  | increased steadily | 85.71% | significant decrease |
| CCC[C@@H]1C[C@@H](C(=O)N[C@@H]([C@H]2O[C@H](SC)[C@H](O)[C@@H](O)[C@H]2O)[C@@H](C)O)N(C)C1 [Lincomycin] | 38.99 mm | sensitive | 11.34 mm | sensitive | 8.81 mm | sensitive |  |  |  |
| CN(C)[C@@H]1C(O)=C(C(N)=O)C(=O)[C@@]2(O)C(O)=C3C(=O)c4c(O)cccc4[C@@](C)(O)[C@H]3C[C@@H]12 [Tetracycline] | 21.44 mm |  | 10.48 mm |  | 17.75 mm |  |  |  |  |
| Gentamicin | 13.97 mm | sensitive | 9.00 mm | sensitive | 9.37 mm | sensitive |  |  |  |
| Penicillin | 29.75 mm | sensitive | 0 mm | resistant | 0 mm | resistant |  |  |  |
| Trimethoprim-sulfamethoxazole | 10.65 mm | sensitive | 17.08 mm | sensitive | 12.75 mm | sensitive |  |  |  |
